From publication PMC3608555, “The HopQ1 Effector’s Nucleoside Hydrolase-Like Domain Is Required for Bacterial Virulence in Arabidopsis and Tomato, but Not Host Recognition in Tobacco” (PLoS ONE, 2013)

Target: RihB (MBP:RihB) (Escherichia coli, UniProt P33022)
Settings: high activity, data not shown

Sequence of RihB (MBP:RihB) (P33022 whole entry): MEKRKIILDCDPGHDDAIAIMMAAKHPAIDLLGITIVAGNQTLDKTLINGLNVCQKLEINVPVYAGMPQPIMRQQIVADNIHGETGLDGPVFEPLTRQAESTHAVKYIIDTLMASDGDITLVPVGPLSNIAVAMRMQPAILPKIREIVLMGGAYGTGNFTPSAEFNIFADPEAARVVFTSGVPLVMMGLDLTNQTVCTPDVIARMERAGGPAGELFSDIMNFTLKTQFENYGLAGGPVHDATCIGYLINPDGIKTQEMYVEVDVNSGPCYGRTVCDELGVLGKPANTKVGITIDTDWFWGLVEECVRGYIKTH

SMILES: O=c1ccn([C@@H]2O[C@H](CO)[C@@H](O)[C@H]2O)c(=O)[nH]1 [uridine]
- nucleoside hydrolase activity assay: MBP:RihB showed high enzymatic activity for cytidine and uridine
